“And” between values parts separate entries of the source, which are not always exact repeats. Identical values can stand only once.
Assays:
[1] = test system: STAM mouse model of Non-alcoholic Steatohepatitis; assay: STAM mouse model of NASH, anti-HCC effects at week 18; conditions: for Mice that died (survival analysis): 6 to 18 weeks; for Body weight / CD31-positive area / Liver weight / Liver-to-body weight ratio / Maximum diameter of visible tumor nodules / Number of visible tumor nodules: mean ± SD
Procedure: Group 1-Vehicle: Eighteen NASH mice were orally administered vehicle at a volume of 10 mL/kg twice daily (9:00 and 19:00) from 6 weeks of age.

[2] = test system: STAM mouse model of Non-alcoholic Steatohepatitis; assay: STAM mouse model of NASH, anti-NASH/fibrosis effects at week 9; assay type: in vivo, mice; set-up: key to Hepatocyte ballooning score 0, number of mice / Hepatocyte ballooning score 1, number of mice: 0: None; 1: Few balloon cells; 2: Many cells/prominent ballooning; TNF-a mRNA expression level / MCP-1 mRNA expression level / Collagen Type 1 mRNA expression level / TIMP-1 mRNA expression level: scale not given here; conditions: for Collagen Type 1 mRNA expression level / MCP-1 mRNA expression level / TIMP-1 mRNA expression level / TNF-a mRNA expression level: liver, quantitative RT-PCR; for Collagen Type 1 mRNA expression level / MCP-1 mRNA expression level / TIMP-1 mRNA expression level / TNF-a mRNA expression level / Body weight / F4/80-positive area (inflammation area) / F4/80 and CD206-positive cells / F4/80 and CDE 16/32-positive cells / Liver hydroxyproline / Liver triglyceride / Liver weight / Liver-to-body weight ratio / M1/M2 ratio / NAFLD Activity Score (NAS) / Oil red-positive area (fat deposition area) / Plasma ALT / Plasma MCP-1 / TUNEL-positive cells / Whole blood glucose / Sirius red-positive area (fibrosis area) / Modified Sirius red-positive rea: mean ± SD; for Sirius red-positive area (fibrosis area): perivascular space included; for Modified Sirius red-positive rea: perivascular space subtracted
Procedure: NASH was induced in male mice by a single injection of 200 μg streptozotocin 2 days after birth (causing impaired glucose control), followed by a high fat diet from 4 weeks of age. […] Animals were sacrificed at 9 weeks of age, and biochemical, gene expression, and histologic evaluations of the liver were conducted. This in vivo efficacy study was performed to examine the effects of Cenicriviroc in the STAM™ mouse model of Non-alcoholic Steatohepatitis. […] [table]

[3] = CVC-high 100 mg/kg/day oral, week 18
[4] = CVC-high 100 mg/kg/day oral, week 18, listed as Cenicriviroc
[5] = CVC-low 20 mg/kg/day oral, week 18
[6] = CVC-low 20 mg/kg/day oral, week 18, listed as Cenicriviroc
[7] = CVC-high 100 mg/kg/day oral, listed as Cenicriviroc
[8] = CVC-low 20 mg/kg/day oral, listed as Cenicriviroc

Structure (SMILES): CCCCOCCOc1ccc(-c2ccc3c(c2)C=C(C(=O)Nc2ccc([S@@+]([O-])Cc4cncn4CCC)cc2)CCCN3CC(C)C)cc1 [CVC, (S)-8-[4-(2-Butoxyethoxy)phenyl]-1-isobutyl-N-(4-{[(1-propyl-1H-imidazol-5-yl)methyl]sulfinyl}phenyl)-1,2,3,4-tetrahydro-1-benzazocine-5-carboxamide]
- Effect on NASH-derived HCC ([1]; CVC treatment groups, week 18): not observed
- Mice that died (survival analysis) ([1]; CVC-high 100 mg/kg/day oral): Five out of twelve
- Mice with GS-positive nodules [1, 3]: seven out of seven
- Mice with HCC lesions (HE staining) [1, 3]: six out of seven
- Body weight [1, 3]: 20.8 ± 2.7 g
- CD31-positive area [1, 3]: 3.68±1.37%
- Liver weight [1, 3]: 1817 ± 446 mg
- Liver-to-body weight ratio [1, 3]: 8.8±2.3%
- Maximum diameter of visible tumor nodules [1, 3]: 5.3±5.1 mm
- Number of visible tumor nodules [1, 3]: 3.6±2.5
- Body weight [1, 4]: 20.8 ± 2.7 g
- CD31-positive area [1, 4]: 3.68 ± 1.37%
- Liver weight [1, 4]: 1817 ± 446 mg
- Liver-to-body weight ratio [1, 4]: 8.8 ± 2.3%
- Maximum diameter of visible tumor nodules [1, 4]: 5.3 ± 5.1 mm
- Number of visible tumor nodules [1, 4]: 3.6 ± 2.5
- Mice that died (survival analysis) ([1]; CVC-low 20 mg/kg/day oral): Six out of twelve
- Mice with GS-positive nodules [1, 5]: five out of six
- Mice with HCC lesions (HE staining) [1, 5]: five out of six
- Body weight [1, 5]: 22.9 ± 3.5 g
- CD31-positive area [1, 5]: 1.47±1.10%
- Liver weight [1, 5]: 1837 ± 410 mg
- Liver-to-body weight ratio [1, 5]: 8.3±2.8%
- Maximum diameter of visible tumor nodules [1, 5]: 4.8±5.4 mm
- Number of visible tumor nodules [1, 5]: 1.5±1.9
- Body weight [1, 6]: 22.9 ± 3.5 g
- CD31-positive area [1, 6]: 1.47 ± 1.10%
- Liver weight [1, 6]: 1837 ± 410 mg
- Liver-to-body weight ratio [1, 6]: 8.3 ± 2.8%
- Maximum diameter of visible tumor nodules [1, 6]: 4.8 ± 5.4 mm
- Number of visible tumor nodules [1, 6]: 1.5 ± 1.9
- Decrease of collagen type 1 mRNA in whole liver lysates ([2]; CVC 20 and 100 mg/kg/day, real-time RT-PCR): 27-37%
- Collagen Type 1 mRNA expression level ([2]; CVC-high 100 mg/kg/day oral): 0.73±0.04
- MCP-1 mRNA expression level ([2]; CVC-high 100 mg/kg/day oral): 1.00±0.53
- TIMP-1 mRNA expression level ([2]; CVC-high 100 mg/kg/day oral): 0.80±0.20
- TNF-a mRNA expression level ([2]; CVC-high 100 mg/kg/day oral): 1.09±0.23
- Collagen Type 1 mRNA expression level [2, 7]: 0.73 ± 0.04
- MCP-1 mRNA expression level [2, 7]: 1.00 ± 0.53
- TIMP-1 mRNA expression level [2, 7]: 0.80 ± 0.20
- TNF-a mRNA expression level [2, 7]: 1.09 ± 0.23
- Body weight ([2]; CVC-high 100 mg/kg/day oral): 18.7 ± 0.9 g
- F4/80-positive area (inflammation area) ([2]; CVC-high 100 mg/kg/day oral): 4.96±0.60%
- F4/80 and CD206-positive cells ([2]; CVC-high 100 mg/kg/day oral): 33.1±3.0%
- F4/80 and CDE 16/32-positive cells ([2]; CVC-high 100 mg/kg/day oral): 41.5±8.2%
- Liver hydroxyproline ([2]; CVC-high 100 mg/kg/day oral): 0.62±0.09 ug/mg total protein
- Liver triglyceride ([2]; CVC-high 100 mg/kg/day oral): 51.7±14.1 mg/g liver
- Liver weight ([2]; CVC-high 100 mg/kg/day oral): 1307 ± 119 mg
- Liver-to-body weight ratio ([2]; CVC-high 100 mg/kg/day oral): 7.0±0.8%
- M1/M2 ratio ([2]; CVC-high 100 mg/kg/day oral): 125.1±21.9%
- NAFLD Activity Score (NAS) ([2]; CVC-high 100 mg/kg/day oral): 3.7±0.8
- Oil red-positive area (fat deposition area) ([2]; CVC-high 100 mg/kg/day oral): 7.23±3.59%
- Plasma ALT ([2]; CVC-high 100 mg/kg/day oral): 51±13 U/L and 52±13 U/L
- Plasma MCP-1 ([2]; CVC-high 100 mg/kg/day oral): 91 ± 14 pg/mL
- TUNEL-positive cells ([2]; CVC-high 100 mg/kg/day oral): 39.0±5.3%
- Whole blood glucose ([2]; CVC-high 100 mg/kg/day oral): 585 ± 91 mg/dL
- Body weight [2, 7]: 18.7 ± 0.9 g
- F4/80-positive area (inflammation area) [2, 7]: 4.96 ± 0.60%
- F4/80 and CD206-positive cells [2, 7]: 33.1 ± 3.0%
- F4/80 and CDE 16/32-positive cells [2, 7]: 41.5 ± 8.2%
- Liver hydroxyproline [2, 7]: 0.62 ± 0.09 ug/mg total protein
- Liver triglyceride [2, 7]: 51.7 ± 14.1 mg/g liver
- Liver weight [2, 7]: 1307 ± 119 mg
- Liver-to-body weight ratio [2, 7]: 7.0 ± 0.8%
- M1/M2 ratio [2, 7]: 125.1 ± 21.9%
- NAFLD Activity Score (NAS) [2, 7]: 3.7 ± 0.8
- Oil red-positive area (fat deposition area) [2, 7]: 7.23 ± 3.59%
- Plasma ALT [2, 7]: 52 ± 13 U/L
- Plasma MCP-1 [2, 7]: 91 ± 14 pg/mL
- TUNEL-positive cells [2, 7]: 39.0 ± 5.3%
- Whole blood glucose [2, 7]: 585 ± 91 mg/dL
- Sirius red-positive area (fibrosis area) [2, 7]: 0.64 ± 0.19%
- Modified Sirius red-positive rea [2, 7]: 0.20 ± 0.06%
- Modified positive area, per mouse ([2]; CVC-high 100 mg/kg/day, Sirius red, individual mice 301-306, listed as Cenicriviroc): 0.18% and 0.20% and 0.12% and 0.26% and 0.17% and 0.27%
- Modified positive area, per photo ([2]; CVC-high 100 mg/kg/day, Sirius red, individual mice 301-306, photos 1-5, listed as Cenicriviroc): 0.26% and 0.06% and 0.10% and 0.41% and 0.09% (2×) and 0.23% (2×) and 0.17% (2×) and 0.28% (2×) and 0.22% (2×) and 0.08% (3×) and 0.05% and 0.32% and 0.07% (3×) and 0.16% and 0.20% (2×) and 0.68% and 0.27% and 0.12% and 0.11% and 0.67%
- Hepatocyte ballooning score 0, number of mice ([2]; CVC-high 100 mg/kg/day, n=6): 1
- Hepatocyte ballooning score 1, number of mice ([2]; CVC-high 100 mg/kg/day, n=6): 2
- Hepatocyte ballooning score 2, number of mice ([2]; CVC-high 100 mg/kg/day, n=6): 3
- Lobular inflammation score 1, number of mice ([2]; CVC-high 100 mg/kg/day, n=6): 3 (>4 foci/200x)
- Lobular inflammation score 2, number of mice ([2]; CVC-high 100 mg/kg/day, n=6): 3 (>4 foci/200x)
- Steatosis score 0, number of mice ([2]; CVC-high 100 mg/kg/day, n=6): 1 (5-33%)
- Steatosis score 1, number of mice ([2]; CVC-high 100 mg/kg/day, n=6): 5
- Collagen Type 1 mRNA expression level ([2]; CVC-low 20 mg/kg/day oral): 0.63±0.10
- MCP-1 mRNA expression level ([2]; CVC-low 20 mg/kg/day oral): 1.05±0.50
- TIMP-1 mRNA expression level ([2]; CVC-low 20 mg/kg/day oral): 0.75±0.32
- TNF-a mRNA expression level ([2]; CVC-low 20 mg/kg/day oral): 1.16±0.39
- Collagen Type 1 mRNA expression level [2, 8]: 0.63 ± 0.10
- MCP-1 mRNA expression level [2, 8]: 1.05 ± 0.50
- TIMP-1 mRNA expression level [2, 8]: 0.75 ± 0.32
- TNF-a mRNA expression level [2, 8]: 1.16 ± 0.39
- Body weight ([2]; CVC-low 20 mg/kg/day oral): 19.5 ± 2.0 g
- F4/80-positive area (inflammation area) ([2]; CVC-low 20 mg/kg/day oral): 4.77±1.02%
- F4/80 and CD206-positive cells ([2]; CVC-low 20 mg/kg/day oral): 34.7±6.3%
- F4/80 and CDE 16/32-positive cells ([2]; CVC-low 20 mg/kg/day oral): 38.7±7.6%
- Liver hydroxyproline ([2]; CVC-low 20 mg/kg/day oral): 0.63±0.05 ug/mg total protein
- Liver triglyceride ([2]; CVC-low 20 mg/kg/day oral): 48.5±16.1 mg/g liver
- Liver weight ([2]; CVC-low 20 mg/kg/day oral): 1334 ± 99 mg
- Liver-to-body weight ratio ([2]; CVC-low 20 mg/kg/day oral): 6.9±1.0%
- M1/M2 ratio ([2]; CVC-low 20 mg/kg/day oral): 112.3±17.0%
- NAFLD Activity Score (NAS) ([2]; CVC-low 20 mg/kg/day oral): 4.0±0.6
- Oil red-positive area (fat deposition area) ([2]; CVC-low 20 mg/kg/day oral): 6.51±3.88%
- Plasma ALT ([2]; CVC-low 20 mg/kg/day oral): 58±12 U/L
- Plasma MCP-1 ([2]; CVC-low 20 mg/kg/day oral): 68 ± 16 pg/mL
- TUNEL-positive cells ([2]; CVC-low 20 mg/kg/day oral): 43.3±2.9%
- Whole blood glucose ([2]; CVC-low 20 mg/kg/day oral): 585 ± 91 mg/dL
- Body weight [2, 8]: 19.5 ± 2.0 g
- F4/80-positive area (inflammation area) [2, 8]: 4.77 ± 1.02%
- F4/80 and CD206-positive cells [2, 8]: 34.7 ± 6.3%
- F4/80 and CDE 16/32-positive cells [2, 8]: 38.7 ± 7.6%
- Liver hydroxyproline [2, 8]: 0.63 ± 0.05 ug/mg total protein
- Liver triglyceride [2, 8]: 48.5 ± 16.1 mg/g liver
- Liver weight [2, 8]: 1334 ± 99 mg
- Liver-to-body weight ratio [2, 8]: 6.9 ± 1.0%
- M1/M2 ratio [2, 8]: 112.3 ± 17.0%
- NAFLD Activity Score (NAS) [2, 8]: 4.0 ± 0.6
- Oil red-positive area (fat deposition area) [2, 8]: 6.51 ± 3.88%
- Plasma ALT [2, 8]: 58 ± 12 U/L
- Plasma MCP-1 [2, 8]: 68 ± 16 pg/mL
- TUNEL-positive cells [2, 8]: 43.3 ± 2.9%
- Whole blood glucose [2, 8]: 585 ± 91 mg/dL
- Sirius red-positive area (fibrosis area) [2, 8]: 0.66 ± 0.16%
- Modified Sirius red-positive rea [2, 8]: 0.29 ± 0.14%
- Hepatocyte ballooning score 1, number of mice ([2]; CVC-low 20 mg/kg/day, n=6): 3
- Hepatocyte ballooning score 2, number of mice ([2]; CVC-low 20 mg/kg/day, n=6): 3
- Lobular inflammation score 1, number of mice ([2]; CVC-low 20 mg/kg/day, n=6): 3 (>4 foci/200x)
- Lobular inflammation score 2, number of mice ([2]; CVC-low 20 mg/kg/day, n=6): 3 (>4 foci/200x)
- Steatosis score 1, number of mice ([2]; CVC-low 20 mg/kg/day, n=6): 6
- Increase in plasma monocyte chemotactic protein-1 levels ([2]; high dose 100 mg/kg/day): 1.5 fold
- Increase in plasma monocyte chemotactic protein-1 levels ([2]; low dose 20 mg/kg/day): 1.1 fold
